Patent publication US11384366B2, “Lentiviral vector capable of directly reflecting type I interferon response, preparation method thereof, and applications thereof” (Fantasia Biopharma (Zhejiang) Co. Ltd., priority 2016, dated 2022)

Columns and labels:
IRF3-BiLC = test: Effect of CHX on IRF3-BiLC in THP-1 (IRF3-BiLC) cells; assay type: cell-based, human; conditions: CHX 100 ng/mL for 10 h, with or without polydA:dT stimulation; normalized to untreated groups; FIG. 5
Procedure: (§1) THP-1-Dual and THP-1 (IRF3-BiLC) cells were plated at a concentration of 1000,000 cells per mL in a 24-well plate. 4 groups were arranged for THP-1-Dual and THP-1 cells respectively, resulting in a total of 8 groups. After 12 hours, for THP-1-Dual cells, two groups of cells were transfected with Lipo2000 and stimulated with […] of polydA:dT, and the other two groups were not treated. The same treatment was performed for THP-1 (IRF3-BiLC). 4 hours after transfection, for the 2 groups of THP-1-Dual cells that were transfected and stimulated with polydA:dT, CHX with a final concentration of 100 ng/mL was added into one group. For the 2 groups of THP-1-Dual cells that were not treated, CHX with a final concentration of 100 ng/mL was added into one group. The other two groups were not treated. The same treatment was performed for THP-1 (IRF3-BiLC).
(§2) After 10 h of CHX treatment, for THP-1-Dual cells, 40 μL of supernatant was taken respectively to detect the luciferase activity. For THP-1 (IRF3-BiLC), 80 μL of Renilla luciferase lysate (purchased from Promega, E2820) was used to lyse on ice for 10 min. […] 20 μL of Renilla luciferase substrate (purchased from Promega, E2820) was added into each well, and the luciferase activity was detected by a microplate reader (purchased from Bio-Tek, Synergy H1).
(§3) The detected values of luciferase were normalized with regard to the untreated groups.

ISRE-Luc = test: Effect of CHX on ISRE-Luc in THP-1-Dual cells; assay type: cell-based; conditions: CHX 100 ng/mL for 10 h, with or without polydA:dT stimulation; normalized to untreated groups; FIG. 6
Procedure: as §1, §2, §3

IRF3 dimers = test: IRF3 dimer luciferase signal in THP-1 (IRF3-BiLC) under different stimulations; assay type: cell-based, human; conditions: FIG. 2a
IRF5 dimers = test: IRF5 dimer luciferase signal in THP-1 (IRF5-BiLC) under different stimulations; assay type: cell-based, human; conditions: FIG. 2b
IRF7 dimers = test: IRF7 dimer luciferase signal in THP-1 (IRF7-BiLC) under different stimulations; assay type: cell-based, human; conditions: FIG. 2c

| Compound | effect of CHX on IRF3-BiLC luciferase activity (IRF3-BiLC) | effect of CHX on ISRE-Luc luciferase activity (ISRE-Luc) | signals of the IRF3 dimers (luciferase activity) (IRF3 dimers) | signals of the IRF5 dimers (luciferase activity) (IRF5 dimers) | signals of the IRF7 dimers (luciferase activity) (IRF7 dimers) |
| --- | --- | --- | --- | --- | --- |
| C[C@@H]1C[C@@H]([C@H](O)CC2CC(=O)NC(=O)C2)C(=O)[C@@H](C)C1 [CHX] | capable of reflecting the intracellular type I interferon response reaction | affected significantly | – | – | – |
| IL-1B: stimulus used on the THP-1 BiLC reporter cell lines | – | – | cannot cause the formation of the signals | cannot cause the formation of the signals | cannot cause the formation of the signals |
| TNFa | – | – | cannot cause the formation of the signals | cannot cause the formation of the signals | cannot cause the formation of the signals |
